Experimental data: patent US8299074B2, “P38 MAP kinase inhibitors” (RespiVert Ltd., priority 2008, dated 2012)
Like-named read-outs stand apart in the source and are kept apart here.

Assays:
p38 MAPK alpha (MAPK14) = biological target: T1, p38 MAPK alpha (MAPK14) (Homo sapiens, UniProt Q16539); test: Enzyme inhibition assay, p38 MAPK alpha (FRET, Z-LYTE, via MAPKAP-K2); type: biochemical; conditions: read-out: Enzyme p38α IC50
T1 construct: purchased Invitrogen

THP-1 cells = test: LPS-induced TNF alpha release in THP-1 cells; type: cell-based; conditions: Homo sapiens
Experimental: LPS-Induced TNF Alpha Release in THP-1 Cells: Potency […] Coli; O111:B4, Sigma) for 4 hr and the supernatant collected for determination of TNFα concentration by sandwich ELISA (Duo-set, R&D systems). The inhibition of TNFα production was calculated at each concentration by comparison with vehicle control.

U937 cells [1] = test: LPS-induced TNF alpha release in U937 cells; type: cell-based
Experimental: (§1) LPS-Induced TNF Alpha/IL-8 Release in U937 Cells: Potency U937 cells, human monocytic cell line, were differentiated to macrophage-type cells by incubation with phorbol myristate acetate (PMA; 100 ng/ml) for 48 to 72 hours. Cells were pre-incubated with final concentrations of compound for 2 hrs. […] Coli: O111:B4, Sigma) for 4 hrs, and the supernatant collected for determination of TNFα and IL-8 concentration by sandwich ELISA (Duo-set, R&D systems). […] The inhibition of IL-8 production was calculated at each concentration of test compound by comparison with vehicle control.

U937 cells [2] = test: LPS-induced IL-8 release in U937 cells; type: cell-based; conditions: Homo sapiens, read-out: DU937 (LPS) IL-8 IC50
Experimental: as §1

BEAS2B cells = test: Poly I:C-induced ICAM-1 induction in BEAS2B cells; type: cell-based; conditions: Homo sapiens, BEAS-2B, read-out: BEAS2B (polyIC) ICAM1 IC50
Experimental: Poly I:C-Induced ICAM-1 Induction in BEAS2B Cells: Potency Poly I:C (1 ug/ml) (Invivogen Ltd., San Diego, Calif.) was transfected into BEAS2B cells (human bronchial epithelial cells, ATCC) with Oligofectamine (Invitrogen, Carlsbad, Calif.). Cells were pre-incubated with final concentrations of compound for 2 hrs. The level of ICAM1 expression on the cell surface was determined by cell-based ELISA. Briefly, at 18 hrs after poly I:C transfection, cells were fixed with 4% formaldehyde in PBS. After quenching endogenous peroxidase by adding 0.1% sodium azide and 1% hydrogen peroxide, cells were washed with wash-buffer (0.1% Tween in PBS: PBS-Tween). After blocking the wells with 5% milk in PBS-Tween for 1 hr, the cells were incubated with anti-human ICAM-1 antibody (Cell Signaling Technology, Danvers, Mass.) in 1% BSA PBS overnight at 4° C. Cells were washed with PBS-Tween and incubated with the secondary antibody (HRP-conjugated anti-rabbit IgG, Dako Ltd., Glostrup, Denmark). The ICAM-1 signal was detected by adding substrate and reading at 450 nm with a reference wavelength of 655 nm using a spectrophotometer. […] The measured OD 450-655 readings were corrected for cell number by dividing with the OD595 reading in each well.

[3] = system: Differentiated U937 cells; test: MTT assay (cell viability); type: cell-based, human
Experimental: MTT Assay Differentiated U937 cells were pre-incubated with compound for 4 hrs in 5% FCS or 10% FCS for 24 hrs. […] After 1 hr incubation, the media were removed, 200 ul of DMSO added to each well and the plates were shaken lightly for 1 h prior to reading the absorbance at 550 nm. The percentage loss of cell viability was calculated for each well relative to vehicle (0.5% DMSO)-treatment. Consequently an apparent increase in cell viability for drug treatment relative to vehicle is tabulated as a negative percentage.

[4] = THP-1, Table 3, read-out: THP-1 (LPS) TNFα IC50
[5] = Homo sapiens; read-out: DU937 (LPS) TNFα REC50
[6] = Table 3, first MTT column, loss of cell viability at 1 μg/ml
[7] = Table 3, second MTT column, loss of cell viability at 1 μg/ml
[8] = THP-1, Table 2, read-out: THP-1 (LPS) TNFα IC50
[9] = Table 2, loss of cell viability at 1 μg/ml
[10] = Table 2, loss of cell viability, test conducted at 10 μg/ml

T1 sequence (Q16539 whole entry): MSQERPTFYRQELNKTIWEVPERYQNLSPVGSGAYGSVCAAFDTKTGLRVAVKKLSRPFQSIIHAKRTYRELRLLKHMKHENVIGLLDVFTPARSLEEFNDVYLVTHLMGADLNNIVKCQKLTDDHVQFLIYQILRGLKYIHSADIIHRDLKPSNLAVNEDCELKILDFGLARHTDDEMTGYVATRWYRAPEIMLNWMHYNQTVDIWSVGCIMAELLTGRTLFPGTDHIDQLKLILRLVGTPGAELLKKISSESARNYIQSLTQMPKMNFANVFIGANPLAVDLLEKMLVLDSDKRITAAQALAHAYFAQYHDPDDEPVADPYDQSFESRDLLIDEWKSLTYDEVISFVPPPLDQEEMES

Compound | IC50 (p38 MAPK alpha (MAPK14); Table 3) | IC50 (THP-1 cells; [4]) | EC50 (U937 cells [1]; [5]) | IC50 (U937 cells [2]; Table 3) | IC50 (p38 MAPK alpha (MAPK14); Table 2) | IC50 (THP-1 cells; [8]) | IC50 (U937 cells [2]; Table 2) | IC50 (BEAS2B cells; Table 3) | DU937 (cell viability) MTT assay 4 h [3, 6] | DU937 (cell viability) MTT assay 4 h [3, 7] | IC50 (BEAS2B cells; Table 2) | DU937 (cell viability) MTT assay 4 h [3, 9] | DU937 (cell viability) MTT assay 24 h [3, 9] | also measured
Cc1ccc(-n2nc(C(C)(C)C)cc2NC(=O)Nc2ccc(Oc3ccnc(NC(=O)NCC(=O)NCCN4CCOCC4)c3)c3ccccc23)cc1 [Example 57, 2-(3-(4-(4-(3-(3-tert-Butyl-1-p-tolyl-1H-pyrazol-5-yl)ureido)naphthalen-1-yloxy)pyridin-2-yl)ureido)-N-(2-morpholinoethyl)acetamide] | < 10 nM | < 10 nM | < 5000 nM | < 5000 nM | – | – | – | < 5 µM | − (<=30%) | − (<=30%) | – | – | – | –
Cc1ccc(-n2nc(C(C)(C)C)cc2NC(=O)Nc2ccc(Oc3ccnc(NC(=O)NCC(=O)N4CCCC4)c3)c3ccccc23)cc1 [Example 53, N-(2-(3-(4-(4-(3-(3-tert-Butyl-1-p-tolyl-1H-pyrazol-5-yl)ureido)naphthalen-1-yloxy)pyridin-2-yl)ureido)acetyl)pyrrolidine] | < 10 nM | < 10 nM | < 10 nM | < 5000 nM | – | – | – | < 0.01 µM | − (<=30%) | − (<=30%) | – | – | – | –
Cc1ccc(-n2nc(C(C)(C)C)cc2NC(=O)Nc2ccc(Oc3ccnc(NC(N)=O)n3)c3ccccc23)cc1 [Example 66, 3-(4-(4-(3-(3-tert-Butyl-1-p-tolyl-1H-pyrazol-5-yl)ureido)naphthalen-1-yloxy)pyrimidin-2-yl)urea] | – | – | < 10 nM | – | – | – | – | – | – | – | – | – | – | IC50 (p38 MAPK alpha (MAPK14); Table 1): < 5000 nM; IC50 (THP-1 cells; THP-1, Table 1, read-out: THP-1 (LPS) TNFα IC50): < 10 nM; IC50 (U937 cells [2]; Table 1): < 10 nM; IC50 (BEAS2B cells; Table 1): < 5 µM; DU937 (cell viability) MTT assay 4 h ([3]; Table 1, MTT, loss of cell viability at 1 μg/ml): − (<=30%); DU937 (cell viability) MTT assay 4 h ([3]; Table 1, first MTT column, loss of cell viability at 1 μg/ml): − (<=30%)
Cc1ccc(-n2nc(C(C)(C)C)cc2NC(=O)Nc2ccc(Oc3ccnc(NC(=O)CNC(=O)N4CCOCC4)c3)c3ccccc23)cc1 [Example 20, N-(2-(4-(4-(3-(3-tert-Butyl-1-p-tolyl-1H-pyrazol-5-yl)ureido)naphthalen-1-yloxy)pyridin-2-ylamino)-2-oxoethyl)morpholine-4-carboxamide] | – | – | < 10 nM | – | < 10 nM | < 10 nM | < 5000 nM | – | – | – | < 5 µM | − (<=30%) | − (<=30%) | –
Cc1ccc(-n2nc(C(C)(C)C)cc2NC(=O)Nc2ccc(Oc3ccnc(NC(=O)NC4CCN(C)CC4)c3)c3ccccc23)cc1 [Example 50, N-(1-Methyl)piperidin-4-yl-N′-4-(4-(3-(3-tert-butyl-1-p-tolyl-1H-pyrazol-5-yl)ureido)naphthalen-1-yloxy)pyridin-2-ylurea] | < 10 nM | – | – | – | – | – | – | – | − (<=30%) | + (>30%) | – | – | – | IC50 (THP-1 cells; THP-1, read-out: THP-1 (LPS) TNFα IC50): < 10 nM; EC50 (U937 cells [1]; Homo sapiens, read-out: DU937 (LPS) TNFα REC50): < 10 nM; IC50 (U937 cells [2]): < 10 nM; IC50 (BEAS2B cells): < 0.01 µM
Cc1ccc(-n2nc(C(C)(C)C)cc2NC(=O)Nc2ccc(Oc3ccnc(NC(=O)CN4CCOCC4)c3)c3ccccc23)cc1 [Example 11, N-(4-(4-(3-(3-tert-Butyl-1-p-tolyl-1H-pyrazol-5-yl)ureido)naphthalen-1-yloxy)pyridin-2-yl)-2-morpholinoacetamide] | – | – | < 10 nM | – | < 10 nM | < 10 nM | < 10 nM | – | – | – | < 5 µM | – | – | DU937 (cell viability) MTT assay 4 h [3, 10]: −^$ (<=30%); DU937 (cell viability) MTT assay 24 h [3, 10]: +^$ (>30%)
Cc1ccc(-n2nc(C(C)(C)C)cc2NC(=O)Nc2ccc(Oc3ccnc(NC(=O)NCCCn4ccnc4)c3)c3ccccc23)cc1 [Example 52, N-(3-(Imidazol-1-yl)propyl)-N′-4-(4-(3-(3-tert-butyl-1-p-tolyl-1H-pyrazol-5-yl)ureido)naphthalen-1-yloxy)pyridin-2-ylurea] | < 5000 nM | < 10 nM | < 10 nM | < 10 nM | – | – | – | < 0.01 µM | − (<=30%) | − (<=30%) | – | – | – | –

Further lines, with some results ahead:

IC50 (p38 MAPK alpha (MAPK14); Table 3) | IC50 (THP-1 cells; [4]) | EC50 (U937 cells [1]; [5]) | IC50 (U937 cells [2]; Table 3) | IC50 (p38 MAPK alpha (MAPK14); Table 2) | IC50 (THP-1 cells; [8]) | IC50 (U937 cells [2]; Table 2) | Compound | IC50 (BEAS2B cells; Table 3) | DU937 (cell viability) MTT assay 4 h [3, 6] | DU937 (cell viability) MTT assay 4 h [3, 7] | IC50 (BEAS2B cells; Table 2) | DU937 (cell viability) MTT assay 4 h [3, 9] | DU937 (cell viability) MTT assay 24 h [3, 9] | also measured
– | – | < 10 nM | – | < 5000 nM | < 10 nM | < 10 nM | COCC(=O)Nc1cc(Oc2ccc(NC(=O)Nc3cc(C(C)(C)C)nn3-c3ccc(C)cc3)cc2)ccn1 [Example 22, N-(4-(4-(3-(3-tert-Butyl-1-p-tolyl-1H-pyrazol-5-yl)ureido)phenoxy)pyridin-2-yl)-2-methoxyacetamide] | – | – | – | < 5 µM | − (<=30%) | + (>30%) | –
< 10 nM | < 10 nM | < 10 nM | < 5000 nM | – | – | – | Cc1ccc(-n2nc(C(C)(C)C)cc2NC(=O)Nc2ccc(Oc3ccnc(NC(=O)NCc4cc(C)no4)c3)c3ccccc23)cc1 [Example 49, N-(3-Methylisoxazol-5-yl)methyl-N′-4-(4-(3-(3-tert-butyl-1-p-tolyl-1H-pyrazol-5-yl)ureido)naphthalen-1-yloxy)pyridin-2-ylurea] | < 5 µM | − (<=30%) | − (<=30%) | – | – | – | –
< 10 nM | < 10 nM | < 10 nM | < 5000 nM | – | – | – | Cc1ccc(-n2nc(C(C)(C)C)cc2NC(=O)Nc2ccc(Oc3ccnc(NC(N)=O)c3)c3ccccc23)cc1 [Example 29, 4-(4-(3-(3-tert-Butyl-1-p-tolyl-1H-pyrazol-5-yl)ureido)naphthalen-1-yloxy)pyridin-2-yl urea] | < 0.01 µM | − (<=30%) | − (<=30%) | – | – | – | –
– | – | < 10 nM | – | < 5000 nM | < 10 nM | < 10 nM | COCC(=O)Nc1cc(Oc2ccc(NC(=O)Nc3cc(C(C)(C)C)nn3-c3ccc(C)cc3)c(C)c2C)ccn1 [Example 26, N-(4-(4-(3-(3-tert-Butyl-1-p-tolyl-1H-pyrazol-5-yl)ureido)-2,3-dimethylphenoxy)pyridin-2-yl)-2-methoxyacetamide] | – | – | – | < 0.01 µM | − (<=30%) | + (>30%) | –
– | – | < 10 nM | – | < 10 nM | < 10 nM | < 10 nM | COCC(=O)Nc1cc(Oc2ccc(NC(=O)Nc3cc(C(C)(C)CO)nn3-c3ccc(C)cc3)c3ccccc23)ccn1 [Example 9, N-(4-(4-(3-(3-(1-Hydroxy-2-methylpropan-2-yl)-1-p-tolyl-1H-pyrazol-5-yl)ureido)naphthalen-1-yloxy)pyridin-2-yl)-2-methoxyacetamide] | – | – | – | < 5 µM | − (<=30%) | − (<=30%) | –
– | – | < 10 nM | – | < 5000 nM | < 10 nM | < 10 nM | COCC(=O)Nc1cc(Oc2ccc(NC(=O)Nc3cc(C(C)(C)C)nn3-c3ccc(C)cc3)cc2C)ccn1 [Example 23, N-(4-(4-(3-(3-tert-Butyl-1-p-tolyl-1H-pyrazol-5-yl)ureido)-2-methylphenoxy)pyridin-2-yl)-2-methoxyacetamide] | – | – | – | < 5 µM | − (<=30%) | − (<=30%) | –
